Values of other authors in patent US10815533B2, “Biomarker for diagnosing anticancer drug resistance of gastric cancer and use thereof” (SAMSUNG LIFE PUBLIC WELFARE FOUNDATION, priority 2017, dated 2020).

B1: FPA144: selective monoclonal antibody against the FGFR2b subtype (antibody, chains of the INN, looked up, V domains shown)
VH: QVQLVQSGAEVKKPGSSVKVSCKASGYIFTTYNVHWVRQAPGQGLEWIGSIYPDNGDTSYNQNFKGRATITADKSTSTAYMELSSLRSEDTAVYYCARGDFAYWGQGTLVTVSS
VL: DIQMTQSPSSLSASVGDRVTITCKASQGVSNDVAWYQQKPGKAPKLLIYSASYRYTGVPSRFSGSGSGTDFTFTISSLQPEDIATYYCQQHSTTPYTFGQGTKLEIK

Tests used:
[1] = tested on: gastric cancer cell line in which FGFR2 was amplified; settings: preclinical result
FGFR2b+gastric cancer = settings: phase I clinical trial, 3 out of 9

Molecule	antitumor efficacy [1]	response rate (FGFR2b+gastric cancer)
CCN1CCN(c2ccc(Nc3cc(N(C)C(=O)Nc4c(Cl)c(OC)cc(OC)c4Cl)ncn3)cc2)CC1 [BGJ398]	strong antitumor efficacy	–
B1	–	33%
